Measurements published in patent publication US20170153225A1, “A METHOD OF SCREENING FOR A COMPOUND CAPABLE OF STIMULATING GLUCOSE TRANSPORT INTO BROWN AND/OR BRITE ADIPOCYTES OF A MAMMAL, A KIT FOR USE IN SUCH A METHOD” (ATROGI AB, priority 2014, published 2017).

What was measured:
[1] = test system: mouse rictor; assay: Rictor knock down with siRNA, then glucose uptake or western blotting; format: cell-based; conditions: 2.5 μg/ml siRNA
Method: Primary brown adipocytes were used on day 3 and transfected with K2 Transfection System (Biontex laboratories) according to manufacturer's protocol using 2.5 μg/ml of siRNA (sequence: […]) directed against mouse rictor (from Sigma). 24 h after transfection, glucose uptake or western blotting was performed as described above.

[2] = test system: GLUT1; assay: Western blot of total GLUT1 protein content; format: cell-based, NMRI mice; conditions: isoproterenol 1 μM, 0-2 h; for total GLUT1 protein content (Western blot): in presence or absence of 1 μM KU 0063794, p=0.0067 and p=0.0017, n=3
Method: Brown adipocytes were grown as described in Example 1 and differentiated in 12 well plates and serum starved the night prior to experiment. On day 7 the cells were challenged with inhibitors for 30 min before being stimulated with drugs as indicated. Lysates were prepared in prewarmed (65° C.) sample buffer (62.5 mM Tris pH 6.8, 2% SDS, 10% glycerol, 50 mM dithiothreitol, 0.1% bromophenol blue) and boiled for 5 min. Samples were loaded on a 8 or 12% acrylamide gel and separated for 2 hours at 100 V. Proteins were transferred to Hybond-P polyvinylidene difluoride membranes (pore size […]; Amersham Biosciences, Arlington Heights, Ill.). The primary GLUT1 antibody (diluted 1:1000) was from AbCam (Cambridge, UK). The primary antibody was detected using a secondary antibody (horseradish peroxidase-linked anti-rabbit IgG, Cell Signaling) diluted 1:2000 and enhanced chemiluminescence (ECL, Amersham Biosciences). Images were quantified using Image J 1.46r. […] Western blot of GLUT1 protein content in mature brown adipocytes was quantified after isoproterenol stimulation (1 μM, 0-2 h) in presence or absence of 1 μM KU 0063794.

[3] = test system: GLUT1; assay: Immunocytochemistry of total cellular GLUT1 in permeabilized cells; format: cell-based, NMRI mice; conditions: isoproterenol 1 μM, 2 h
Method: (§1) Brown adipocytes were isolated as described in Example 1 and seeded onto BD Falcon culture chamber slides (BD Biosciences, Franklin Lakes, N.J.). Cells were serum starved the night prior to experiment. On day 7 the cells were challenged with inhibitors for 30 min before being stimulated for 1-2 hours with drugs as indicated. Cells were washed with warm PBS and fixed for 15 min (4% formaldehyde in PBS). Cells were washed with PBS and formaldehyde quenched with 50 mM glycine in PBS, and washed three times for 5 min each with PBS. Cells were blocked for 1 h at room temperature with 8% BSA in PBS, and washed three times for 5 min each with PBS. For permeabilizing the cells, the cells were treated with 10% triton x in PBS (dilution 1:40) before blocking. Primary antibody (2 μg/ml GLUT1 antibody (AbCam, Cambridge, UK), 1.5% BSA in PBS) was added and slides incubated over night at 4° C. The next day the cells were washed three times for 5 min each with PBS. Slides were then incubated with secondary antibody (3 μg/ml alexa488 conjugated goat antirabbit IgG (Invitrogen, Paisley, UK), 3% BSA in PBS) and washed three times for 5 min each with PBS. Slides were mounted with mounting media (8% 1,4-diazabicyclooctane, 75% glycerol in PBS) and sealed.

[4] = test system: BAT; assay: Glucose uptake in brown fat (BAT) in vivo, [3H]-2DG; parameters: species or system FVB mice; conditions: n=5
Method: Groups of FVB mice were fasted for 5 hours prior to study and anesthetized with pentobarbital (60 mg per kg of body weight, i.p.). Mice were then injected with a specific mTOR inhibitor KU 0063794 (10 mg/kg i.p.) or DMSO as control. Isoproterenol (1 mg/kg ip) or saline were injected after 10 min and [^3H]-2DG (130 μCi/kg body weight ip) 20 min prior to end time. BAT was dissected […], and tissues digested with 0.5M NaOH overnight. Glucose uptake was measured by liquid scintillation counting. All experiments were conducted with ethical permission (N388/12) from the North Stockholm Animal Ethics Committee.

[5] = test system: mTOR; assay: mTOR phosphorylation at Ser2481 and Ser2448 by western blot; format: cell-based; conditions: 1 μM isoprenaline, 2 hours
From the text: The immunoblot is representative of three experiments performed.

[6] = test system: mature brown adipocytes primary cultures; assay: 2-deoxy-D-[1-3H]-glucose uptake in vitro in mature primary brown adipocytes; format: cell-based, NMRI mice; conditions: for glucose uptake: isoproterenol 1 μM, 2 hours, p=0.0042, n=4-6
Method: Brown fat primary cells were isolated from NMRI mice (3-4 week-old) purchased from Nova-SCB AB, Sweden. All experiments were conducted with ethical permission (N388/12) from the North Stockholm Animal Ethics Committee. Animals were euthanized by CO2, and brown fat precursor cells were isolated from the intrascapular, axillary and cervical brown adipocyte depots as previously described (Hutchinson, Bengtsson 2006, Hutchinson, Chernogubova et al. 2006). The tissue was minced and transferred to a HEPES-buffered solution (pH 7.4) containing 0.2% (wt/vol) crude collagenase type II. Routinely, tissue from 6 mice was digested in 10 ml of the HEPES-buffered solution. The tissue was digested for 30 minutes at 37° C., with constant vortexing. The digest was filtered through a 250 μm filter and the solution incubated on ice for 15 min to allow the mature adipocytes and fat droplets to float. The infranatant was filtered through a 25 μm filter, centrifuged (10 min, 700×g), the pellet resuspended in DMEM (4.5 g D-glucose/l) and recentrifuged. The pellet was finally resuspended in 0.5 ml cell culture medium per mouse dissected. The cell culture medium consisted of DMEM (4.5 g D-glucose/l) supplemented with 10% newborn calf serum, 2.4 nM insulin, […], 50 IU/ml penicillin, 50 μg/ml streptomycin and 25 μg/ml sodium ascorbate. Aliquots of 0.1 ml cell suspension were cultured in 12-well culture dishes with 0.9 ml of cell culture medium. Cultures were incubated in a 37° C. humidified atmosphere of 8% CO2 in air. On days 1, 3 and 5, the cell culture medium was renewed. Cells were used on day 7.
Glucose uptake in vitro was performed as previously described (Yamamoto, Hutchinson et al. 2007). On day 7 the cells were treated with inhibitors for 30 min before addition of isoproterenol for 2 hours, unless otherwise indicated. […] Reactions were terminated by washing in ice-cold PBS, cells lysed (400 μl of 0.2 M NaOH, 1 h at 60° C.) and the incorporated radioactivity determined by liquid scintillation counting.

[7] = test system: GLUT1; assay: Immunocytochemistry of plasma membrane GLUT1 (translocation) in non-permeabilized cells; format: cell-based, NMRI mice; conditions: KU 0063794 1 μM, isoproterenol 1 μM, 2 h, p=0.0153, n=3
Method: as §1

siRNA directed against mouse rictor: siRNA (sequence: CAGAAAGCAATCGCAACTCACCACA) directed against mouse rictor (from Sigma) (chemistry not given here)
inhibition of isoproterenol (GPCR) stimulated glucose uptake by rictor knock down ([1]; 24 h after transfection, p=0.0105, n=3): fully inhibited
rictor protein after knock down ([1]; K2 transfection system): reduction of rictor protein

CC(C)NCC(O)c1ccc(O)c(O)c1 (centres unmarked) [Isoproterenol]
total GLUT1 protein content (Western blot) [2]: significantly increase the amount of GLUT1
total GLUT1 protein content (Western blot) ([2]; listed as isoproterenol): increased total GLUT1 content
total cellular GLUT1 (de novo synthesis), permeabilized cells ([3]; p=0.0334, n=3): de novo synthesis can be stimulated
glucose uptake in brown fat in vivo ([4]; isoproterenol 1 mg/kg ip): stimulated glucose uptake in vivo
mTOR phosphorylation at Ser2448 [5]: not at Ser2448
glucose uptake [6]: increase glucose uptake
glucose uptake ([6]; listed as isoproterenol): increases glucose uptake

COc1ccc(-c2ccc3c(N4CCOCC4)nc(N4C[C@@H](C)O[C@@H](C)C4)nc3n2)cc1CO [KU 0063794]
effect of mTOR inhibitor on isoproterenol-increased GLUT1 content (Western blot) ([2]; KU 0063794 1 μM): mTOR independent manner
effect of mTOR inhibitor on stimulated de novo synthesis of GLUT1, permeabilized cells ([3]; KU 0063794 1 μM): not inhibited by inhibition of mTOR
reduction of isoproterenol stimulated glucose uptake in vivo ([4]; KU 0063794 before isoproterenol 1 mg/kg ip, p=0.0175): significantly reduced
inhibition of isoproterenol-stimulated translocation of GLUT1 to the plasma membrane [7]: prevents the translocation of GLUT1 to the plasma membrane

CCC(=O)N1CCN(c2ccc(-n3c(=O)ccc4cnc5ccc(-c6cnc7ccccc7c6)cc5c43)cc2C(F)(F)F)CC1 [Torin-1]
inhibition of isoproterenol stimulated glucose uptake ([6]; Torin-1 1 μM, 30 min before isoproterenol 1 μM): full inhibition of glucose uptake
